{
  "source": "patent US20090022772A1",
  "about": "“BIOABSORBABLE ELASTOMERIC ARTERIAL SUPPORT DEVICE AND METHODS OF USE” (MediVas, LLC, priority 2007, published 2009)",
  "experiment": "Properties and self-adherence of PEA 4-Phe-4/EAC-2 mixture films, dry and after soaking in water",
  "assay_type": "physicochemical",
  "design": "key to Self-adherence: (—) means: no self-adherence observed",
  "conditions": "for Self-adherence: folded film in water 24 hours",
  "description": "At the first stage, this Example addresses the question of whether invention cross-linking agents can be used as plasticizers without causing the composition to undesirably adhere to the surface of other materials (for example, steel, and other medical device surfaces).",
  "data": [
    {"compound": "C=C(C)C(=O)NC(Cc1ccccc1)C(=O)OCCCCCCOC(=O)C(Cc1ccccc1)NC(=O)C(=C)C", "note": "[Phe-6-MA, dimethacrylate of bis(L-Phe)-1,6-hexanediol diester]", "values": [
      {"measurement": "Self-adherence", "setting": "PEA 4-Phe-4/EAC-2 40/60 w/w", "result": "—"},
      {"measurement": "Film properties, Dry", "setting": "PEA 4-Phe-4/EAC-2 60/40 w/w", "result": "Hard"},
      {"measurement": "Self-adherence", "setting": "PEA 4-Phe-4/EAC-2 60/40 w/w", "result": "—"},
      {"measurement": "Film properties, Wet", "setting": "PEA 4-Phe-4/EAC-2 60/40 w/w, pre-soaked in water at room temperature for 24 hours", "result": "Elastic"},
      {"measurement": "Film properties, Dry", "setting": "PEA 4-Phe-4/EAC-2 80/20 w/w", "result": "Hard"},
      {"measurement": "Self-adherence", "setting": "PEA 4-Phe-4/EAC-2 80/20 w/w", "result": "—"}
    ]}
  ]
}
